Laboratory results reported in PubChem BioAssay AID2305 (GlaxoSmithKline (GSK), 2010).
pIC50: −log10 of the molar value.

system: P. falciparum 3D7 growth, pLDH absorbance; test: blood-stage malaria parasite growth potency – strain 3D7, dose response (AID 2305)

SMILES | pIC50
O=C1CCCN1CCCNCc1cccc(-c2ccc(-c3nc4ccccc4[nH]3)s2)c1 | 6.07
O=c1cc(NCCCNCc2ccc(Cl)c(Cl)c2)[nH]c2cc(F)cc(F)c12 | 6.17
O=C(Cc1cccc(O)c1)NCC(Cc1ccc(O)cc1)c1ccccc1 (stereo not given) | 6.19
Cc1cccc2[nH]c(-c3cccc(-c4ccc(CN5CCCC5CN)cc4)c3)nc12 (stereo not given) | 6.12
O=C1CCCN1CCCNCc1ccc(-c2ccc(-c3nc4ccc(F)cc4[nH]3)s2)cc1 | 6.05
Cn1cncc1C(=O)Nc1cccc(-c2cccc(-c3nc4ccccc4[nH]3)c2)c1 | 6.19
Nc1nccc2ccc(-c3cccc4ncccc34)cc12 | 7.30
O=S(=O)(Nc1cccc(CCN2CCCCC2CCN2CCCC2)c1)c1ccc(-c2ccccc2)cc1 (stereo not given) | 5.96
CC(=O)Nc1ccc(CN(Cc2ccc(OC(C)(C)C)cc2)Cc2ccc3c(c2)OCCO3)cc1 | 6.03
Cc1ccccc1C1CCN(C2CCC(NC(=O)C3=Cc4ccccc4OC3)CC2)CC1 (stereo not given) | 6.03
COC(=O)C(C)(C)Cc1c(SC(C)(C)C)c2cc(C(C)C)ccc2n1Cc1ccc(Cl)cc1 | 6.07
COc1cccc(C(NC(=O)c2ccccc2)c2ccc3cccnc3c2O)c1 (stereo not given) | 5.97
CCCCc1nc2nc(N)nc(N)c2cc1CCC | 6.51
COc1cccc(CNC(=O)[C@H]2CNCCN2C(=O)CCCc2ccccc2)c1 | 6.10
COc1cccc(C(=O)Nc2ccc(Nc3nc(C)cc(N(C)C)n3)cc2)c1OC | 5.99
CCNc1cc(C)nc(Nc2ccc(NC(=O)c3ccc(OC)c(OC)c3)cc2)n1 | 5.97
COc1ccc(-c2nc(NC(=O)Cc3coc4cc(OC)ccc34)sc2C)cc1 | 6.21
Cc1ccc(S(=O)(=O)c2nc(S(=O)(=O)c3ccccc3)sc2NCC2CCCO2)cc1 (stereo not given) | 5.99
CCOc1ccc(OCC)c(N2CCN(CCCCNC(=O)c3ccc(NC(=O)c4ccc(Cl)cc4)cc3)CC2)c1 | 6.23
O=C(NCCCN1CCCC1=O)c1cnc(N2CCC(Oc3ccccc3)CC2)c(Cl)c1 | 6.52
CCC(=O)OC(CCN(CC)CC)(c1ccccc1)c1ccccc1 | 6.43
O=C(COc1cnc2ccccc2n1)Nc1ccccc1Sc1ccc(Cl)cc1 | 6.14
O=C(Nc1cccc(CN2CCCN(Cc3ccc(O)cc3)CC2)c1)c1ccc2ccccc2n1 | 6.03
Brc1ccc(Nc2ccnc3cc(-c4nccs4)ccc23)cc1Oc1ccnc2cc(-c3nccs3)ccc12 | 5.97
CCCCCN1CCCC1CNS(=O)(=O)c1ccc(C(=O)Nc2cccc(C(F)(F)F)c2)cc1 (stereo not given) | 5.97

SMILES | pIC50
CCCCCN1C(=O)C(c2ccccc2)(c2ccccc2)N=C1N | 6.10
CCc1ccc(C2CCN(CCCCNC(=O)c3ccc(NC(=O)c4ccc(Cl)cc4)cc3)CC2)c(OC(C)=O)c1 | 6.82
CCOc1ccc(-c2nonc2NC(=O)c2ccc(F)cc2)cc1OCC | 6.48
O=C(/C=C/c1c(Cl)cccc1Cl)NC1CCC(CN2CCC(Cc3cc4ccccc4[nH]3)CC2)CC1 (stereo not given) | 6.01
COc1cccc(C23N=C(Nc4nc5ccccc5[nH]4)NC2(c2cccc(OC)c2)NC(Nc2nc4ccccc4[nH]2)=N3)c1 (stereo not given) | 6.80
OCc1ccc2nc3c(cc2c1)-c1cccc2cccc-3c12 | 6.18
CCc1ccc(NC(=O)c2cccc(CN3CCCN(Cc4ccc(OC)cc4)CC3)c2)cc1 | 6.04
Cc1ccc(S(=O)(=O)NC2=NC(C)(C)N(OCc3ccc(Cl)c(Cl)c3)C(N)=N2)cc1 | 5.94
Oc1ccc(CCNCCCCCCNCCc2ccc(-c3ccccc3)cc2)cc1O | 6.22
CCc1c(C)nc(-n2nc(C)cc2NC(=O)c2cccc3ccccc23)[nH]c1=O | 6.17
CC(=O)Nc1ccc(OCCCCCOc2ccc(NC(C)=O)cc2Cl)c(Cl)c1 | 6.08
C=CCc1ccc(C[C@H](NC(=O)OC(C)(C)C)C(=O)OC)cc1 | 6.09
COCCNCc1cccc(-c2ccc3c(Nc4ccc(F)cc4Cl)ccnc3c2)c1 | 6.17
COc1c(O)cc2oc(-c3ccc(O)cc3)cc(=O)c2c1O | 6.11
CCOC(=O)NCC(=O)Nc1cccc(-c2cccc(-c3nc4c(C)cccc4[nH]3)c2)c1 | 6.13
CC(C)(C)c1ccc(-c2nnc(N)nc2N)cc1 | 6.07
Cn1nc(-c2ccc(NC(=O)Nc3cc(C(F)(F)F)ccc3F)cc2)c2cnc(NCCc3cnc[nH]3)nc21 | 6.09
COc1ccc(C2CC(=O)C3=C(C2)NC(C)=C(C(=O)OC2CCCC2)C3c2cccc(O)c2)cc1 (stereo not given) | 6.00
NCc1ccc(CNCc2cccc(-c3cccc(-c4nc5ccc(F)cc5[nH]4)c3)c2)cc1 | 6.51
c1ccc(CCNCc2ccc(-c3cccc(CNc4ccc5ncccc5c4)c3)cc2)cc1 | 6.03
CN(Cc1cccc(O)c1)C1CCN(c2cc(NC(=O)c3cccc(F)c3)ccn2)CC1 | 6.07
O=[N+]([O-])c1ccc(Nc2nc(NN=Cc3ccc(-c4ccc([N+](=O)[O-])cc4)o3)nc(Nc3ccccc3)n2)cc1 | 6.19
O=C1O[C@H](c2ccccc2)[C@H](c2ccccc2)N(C(=O)OCc2ccccc2)[C@H]1Cc1ccccc1C1CCCC1 | 7.22
Cc1cc(N)nc2cc(CNCCc3ccccc3Br)ccc12 | 6.89
O=C(Cn1c(SCc2cccc(F)c2F)cc(=O)c2ccccc21)N(CCn1ccnc1)Cc1ccc(-c2ccc(C(F)(F)F)cc2)cc1 | 6.11
